Laboratory results taken from patent US7569547B2, “Inhibiting furin with polybasic peptides” (Board of Supervisors of Louisiana State University and …, priority 2001, dated 2009).

Experiments:
[1] = system: Pseudomonas exotoxin A (PEA) in HEK293 cells; assay: Protection of HEK293 cells from death caused by Pseudomonas exotoxin A (WST); format: cell-based, human
From the text: Pseudomonas exotoxin A (PEA) must be cleaved by furin at the cell surface to gain entry into a cell, which typically causes cell death. […] We inferred that the D6R blocked the cleavage of PEA by furin, thus preventing its activation.

[2] = system: HIV; assay: Formation of syncytia by HIV in vitro in MT4 T cells; format: cell-based; details: micromolar concentrations, MT4 line of T cells, preliminary data (not shown)
From the text: The administration of polyarginines and other polybasic peptides in accordance with the present invention may be used to combat bacterial and viral infections, and to inhibit the growth of certain cancers. Preliminary data, for example, show activity against Pseudomonas exotoxin, and against HIV.

## N=C(N)NCCC[C@@H](NC(=O)[C@H](N)CCCN=C(N)N)C(=O)N[C@H](CCCNC(=N)N)C(=O)N[C@H](CCCNC(=N)N)C(=O)N[C@H](CCCNC(=N)N)C(=O)N[C@H](CCCN=C(N)N)C(=O)O [Hexa-D-arginine]
[1]; HEK293, 1 μM D6R + 10 ng/mL PEA, 51 hours
  amount of WST (absorbance): 0.52 ± 0.04
[1]; HEK293, 1 μM D6R + 10 ng/mL PEA, 76 hours
  amount of WST (absorbance): 0.85 ± 0.02
[1]; HEK293, 1 μM D6R + 10 ng/mL PEA, 86 hours
  amount of WST (absorbance): 0.83 ± 0.02
[1]; HEK293, 1 μM D6R + 10 ng/mL PEA, 96 hours
  amount of WST (absorbance): 0.56 ± 0.04
[1]; HEK293, 10 μM D6R + 10 ng/mL PEA, 51 hours
  amount of WST (absorbance): 0.54 ± 0.07
[1]; HEK293, 10 μM D6R + 10 ng/mL PEA, 76 hours
  amount of WST (absorbance): 0.73 ± 0.05
[1]; HEK293, 10 μM D6R + 10 ng/mL PEA, 86 hours
  amount of WST (absorbance): 0.71 ± 0.02
[1]; HEK293, 10 μM D6R + 10 ng/mL PEA, 96 hours
  amount of WST (absorbance): 0.67 ± 0.01
[1]; HEK293, 100 μM D6R + 10 ng/mL PEA, 51 hours
  amount of WST (absorbance): 0.51 ± 0.04
[1]; HEK293, 100 μM D6R + 10 ng/mL PEA, 76 hours
  amount of WST (absorbance): 0.78 ± 0.03
[1]; HEK293, 100 μM D6R + 10 ng/mL PEA, 86 hours
  amount of WST (absorbance): 0.61 ± 0.06
[1]; HEK293, 100 μM D6R + 10 ng/mL PEA, 96 hours
  amount of WST (absorbance): 0.55 ± 0.02
[1]; HEK293 cells, 10 ng/mL PEA, 1 μM final concentration
  effect on cell death caused by PEA: reduced the cell death caused by PEA
[1]; preliminary data, summary statement
  protection of cells from killing by exotoxin: able to protect cells from killing
[2]
  formation of syncytia by HIV: inhibited the formation of syncytia
